# Assay results taken from patent US20050203119A1, “Dihydropyridine compounds for treating or preventing metabolic disorders” (priority 2003, published 2005).
# What was measured:
# [1] = system: male db/db mice (BKS.Cg-m+/+Lepr db/J); test: Intraperitoneal glucose tolerance test (IPGTT) in db/db mice (Example 122, FIGS. 3 and 5); type: in vivo, mouse; details: IPGTT
# Protocol: Six to eight week old, male db/db mice (BKS.Cg-m+/+Lepr^db/J; stock number 000642), homozygous for a mutation in the gene encoding the leptin receptor, were purchased from The Jackson Laboratory (Bar Harbor, Me. USA). Animals were singly housed in conventional caging on a 12 hr/12 hr light/dark cycle, acclimated for at least five days prior to use and fed normal laboratory chow ad libitum between experiments. Studies were conducted with animals between seven and fourteen weeks of age. Animals were used for a maximum of five consecutive studies, with a minimum recovery period of five days between studies.
# To perform an IPGTT or OGTT, db/db mice were fasted overnight beginning on day 0 at −17.5 to −18.5 hrs relative to the glucose dose on day 1 (all time points below are stated relative to the time of an intraperitoneal or oral glucose dose on day 1). At −4.5 hrs, animals were weighed, blood was collected by tail vein lancing and fasted blood glucose levels determined using a hand-held glucometer (MediSense Precision Xtra or LifeScan OneTouch Ultra). Animals were randomized into dosing groups of 6-7 animals, with each group having a similar average fasted blood glucose level. At −3 hr, animals were dosed with vehicle alone, a test compound or metformin by oral gavage at 5 ml/kg body weight. […] Blood glucose levels were determined as above at −45 min and +45 min, and also +90 min and/or +150 min (see FIG. 3 and the Table in this section). Alternatively, blood glucose levels were determined at −30 min, +30 min, +60 min and +120 min (see FIGS. 4 and 5).
# Compound doses were adjusted to be the molar equivalents of 50 mg/kg of Compound 39. The percent change in blood glucose between −45 min and a time point, y, after glucose dosing (e.g., +45 min, +150 min, ect.) was calculated for each animal using formula 1: [formula]
# The percent change in blood glucose between −45 min and a time point, y, after glucose dosing was calculated for each animal using formula 1.
# Average percent change in glucose intolerance was calculated using Formula 2, as noted in the table below. […]
# [2] = system: NIDDM male mice (C57BLKS/J-m+/+Lepr db); test: 7 day baseline glucose test in db/db mice (Example 119); type: in vivo, mouse; details: for Serum Glucose % Pre-Treatment Baseline: 3 hours after dose
# Protocol: Non-insulin dependent diabetic mellitus (NIDDM) male mice (C57BLKS/J-m+/+Lepr db), weighing 50±5 g and 9-10-week old, were used. The animals were housed in Individually Ventilated Cages Racks (IVC Racks) throughout the experiment and all animals were allowed free access to sterilized Lab chow and sterilized distilled water. Compounds 39, 41 and 64 at 50 mg/kg as well as vehicle (0.5% Methylcellulose) were administered orally once daily for 7 consecutive days to test animals after the first blood sampling (pre-treatment). The post-treatment blood samples were withdrawn from the orbital sinus at 3 hours after administration of daily dose on day 3 and on day 7. Serum glucose levels in the pre- and post-treatment were determined by enzymatic (Mutaratase-GOD) methods. Post-treatment serum glucose values were expressed in percentage of respective pre-treatment values. Percentage reductions were expressed in percentage of pre-treatment values of test substance relative to percentage of pre-treatment values of vehicle. All percentages were calculated and unpaired; Student's t test was then applied to establish significant difference between the test compound-treated and vehicle control groups. Differences are considered significant at P<0.05.
# [3] = system: male KK-Ay mice (KK-Ay/Ta Jcl); test: Seven day baseline glucose (7DBG) study in fed KK-Ay mice (Example 123, FIG. 7); type: in vivo, mouse; details: oral once daily 7 days
# Protocol: To determine the effect of a test compound on blood glucose levels in fed diabetic mice, seven day baseline glucose (7DBG) studies were conducted. Six to eight week old, male db/db mice (C57BLKS/J-m+/+Lepr^db/Iar), homozygous for a mutation in the gene encoding the leptin receptor, were purchased from the Institute for Animal Reproduction (Kasumigaura, Japan). Six to eight week old male KK-A^y mice (KK-A^y/Ta Jcl), a polygenic diabetes model, were purchased from Cler Japan (Tokyo, Japan). Animals were housed four to a cage in micro-isolators on a 12 hr/12 hr light/dark cycle, acclimated for at least one week prior to use and fed normal laboratory chow ad libitum. Studies were conducted with animals between nine and fourteen weeks of age. […]
# To perform a 7DBG study, the starting glucose levels of db/db or KK-Ay mice in the fed state were determined on day 0, 24 hrs prior to the first drug dose on day 1. Animals were retro-orbitally bled and serum glucose levels measured by the mutarotase-glucose oxidase enzymatic method using a Glucose CII-Test Wako kit (Wako Pure Chemicals Industries, Ltd., Osaka, Japan). […] Serum glucose levels were determined 3 hrs after dosing the first compound on days 3 and 7.
# The serum glucose levels on days 3 or 7 as a percent of the serum glucose levels on day 0 for individual animals in each group (8 mice/group), were calculated using Formula 3. […]
# [4] = system: Male ZDF rats (ZDF/GmiCrl-fa/fa); test: Seven day baseline glucose study in fed ZDF rats (Example 124, FIG. 9); type: in vivo, rat; details: oral once daily 7 days
# Protocol: To determine the effect of a test compound on blood glucose levels in fed and fasted diabetic rats, a 7DBG study was conducted, followed immediately by an 8th day of dosing and an OGTT study on the same animals. Male ZDF rats (ZDF/GmiCrl-fa/fa), homozygous for a mutation in the gene encoding the leptin receptor, were purchased from Charles River Laboratories (Wilmington, Mass., USA). Animals were individually housed in clear polycarbonate cages (contact bedding) on a 12 hr/12 hr light/dark cycle, acclimated for at least one week prior to use and fed normal laboratory chow (Purina No. 5008) ad libitum. Studies were conducted with animals starting between eleven and twelve weeks of age. Animals were used for a single study before being replaced.
# To perform a 7DBG plus OGTT study, animals were bled by tail vein lancing on day 0, 24 hrs prior to the first drug dose on day 1, and blood glucose levels were measured by a hand-held glucometer. Animals were randomized into dosing groups of 6 animals, with each group having a similar starting average glucose level. […] Blood glucose levels were determined daily using a hand-held glucometer 3 hrs after the first dose on days 1 through 7.
# The serum glucose levels on days 3 or 7 as a percent of the serum glucose levels on day 0 for individual animals in each group (6 rats/group), were calculated using Formula 3. […]
# Male SD rats = details: rat, in vivo
# Protocol: Male SD rats weighing 350-420 g were anesthetized with 2-3% isoflurane. The femoral artery and vein were catheterized and connected to a mean arterial blood pressure (MAP) and heart rate (HR) monitor and a continuous intravenous infusion pump. Under anesthesia, MAP and HR were recorded 10-20 minutes prior to and during the continuous intravenous infusion of test compounds for 60-70 minutes. The infusion rate, 0.14-0.16 ml/kg/minute, was determined on the basis of vehicle tolerance. The infusion doses, 1.0-1.25 mg/kg/minute, were selected, depending upon the solubility of the compound and effects on MAP and HR of the positive control compounds at the lethal dose. The maximal effective dose or lethal dose of test compounds were determined accordingly.
# [5] = Day 3, 50 mg/kg orally once daily
# [6] = Day 7, 50 mg/kg orally once daily
compound,measurement,setting,value
"CCOC(=O)C1=C(COCCN)NC2=C(C(=O)CC(C)(C)C2)C1c1cccnc1 (centres unmarked) [Compound 39, 2-(2-Amino-ethoxymethyl)-7,7-dimethyl-5-oxo-4-pyridin-3-yl-1,4,5,6,7,8-hexahydro-quinoline-3-carboxylic acid ethyl ester]",glucose intolerance relative to vehicle-treated animals (FIG. 5),[1]; Compound 39 orally dosed alone,decreased
same,effect of metformin on glucose intolerance in combination with Compound 39 (FIG. 5),[1]; Compound 39 orally in combination with metformin,enhanced
same,serum glucose % Reduction relative to vehicle,[2]; [5],(3) %
same,Serum Glucose % Pre-Treatment Baseline,[2]; [5],98.5%
same,serum glucose % Reduction relative to vehicle,[2]; [6],(18) %
same,Serum Glucose % Pre-Treatment Baseline,[2]; [6],82.3%
same,glucose lowering activities of rosiglitazone and metformin in combination with Compound 39 (FIG. 7),[3],enhanced
same,serum glucose (FIG. 7),[3]; Compound 39 alone,decreased serum glucose
same,glucose lowering activities of metformin in combination with Compound 39 (FIG. 9),[4],enhanced
same,serum glucose (FIG. 9),[4]; Compound 39 alone,decreased serum glucose
same,Lethal Dose,Male SD rats,>70 mg/kg
